Experimental data as given in patent US6043223A, “Enhanced opening of abnormal brain tissue capillaries” (priority 1997, dated 2000).
Where a SMILES comes first, the peptide text is derived from it.

Key:
brain tumor capillaries = conditions: intracarotid infusion; previous studies (6-9); cited from earlier work
RG2 gliomas = assay: Regional permeability (Ki) by quantitative autoradiography in rats with implanted RG2 gliomas; assay type: in vivo, rat; conditions: for effect on tumor permeability 20 minutes after stopping the intracarotid infusion (in words): [14C]-dextran
Description: (§1) RG2 and C6 are cell lines derived from rat gliomas induced by ethylnitrosourea (17,18). The glioma cells were kept frozen until use, then thawed and maintained in a monolayer culture in F12 medium with 10% calf serum. The rats were anesthetized with intra-peritoneal ketamine (50 mg/kg). Glial tumors were implanted into the right hemisphere by intracerebral injections of 1×10^5 glioma cells in 5 μl F12 medium (1.2% methylcellulose) by a Hamilton syringe. The coordinates used were 5 mm lateral to the bregma, and 4.5 mm deep to the dural surface.
(§2) Seven or eight days after tumor implantation, the rats were anesthetized with intra-peritoneal urethane (1 g/kg) and a polyethylene catheter was inserted retrograde through the external carotid artery to the common carotid artery bifurcation ipsilateral to the tumor. The external carotid artery and pterygopalatine artery were then ligated. Both femoral veins were cannulated for administration of drugs or tracers. One femoral artery was cannulated to monitor systemic blood pressure and the other femoral artery was cannulated to withdraw arterial blood. Body temperature was maintained at 37° C. and arterial blood gases, blood pressure, and hematocrit were monitored.
The tumor-implanted rats were grouped by tracers and by tumor types. Bradykinin (Sigma Chemical Co., St. Louis, Mo.) or PBS (control) was infused into the right carotid artery at a rate of 53.3 μl/minute (10 μg/kg/minute) for 15 minutes. In regional permeability studies, 5 minutes after the start of the intracarotid infusion, […] of [^14 C]-AIB (MW 103, Dupon-New England Nuclear Co., Boston, Mass.) or [^14 C]-Dextran (MW 70,000, Dupon-New England Nuclear Co.) was injected as an intravenous bolus. A peristaltic withdrawal pump was used to withdraw femoral arterial blood at a constant rate of […] immediately after the injection of the tracer for the determination of serum radioactivity. Fifteen minutes after the start of intracarotid infusions, the animals were killed by decapitation and the brains were rapidly removed and frozen.
Bradykinin, zaprinast or bradykinin mixed with zaprinast was infused into the right carotid artery at a rate of 53.3 μl/minute for 15 minute. The rate of infusion of bradykinin and zaprinast was 10 μg/kg/minute and 1.67 mg/kg/minute ([…]) respectively. Injection of tracer, withdrawing of arterial blood, and other protocols were in the same manner as described above.
The duration of the effect of the intracarotid bradykinin with or without zaprinast infusion in RG2 glioma was examined at three different periods by changing the time of [^14 C]-dextran injection relative to intracarotid infusion of bradykinin with or without zaprinast.
The frozen brains were mounted onto pedestals with M-1 embedding matrix (Lipshaw, Pittsburgh, Pa.) and 20 μm coronal sections were cut with a cryotome. The sections were thawmounted onto cover slips and autoradiograms were generated by co-exposing the sections on Kodak XAR-5 film with tissue calibrated [^14 C]-standards (Amersham, Arlington Heights, Ill.) for 2 weeks. The sequential section was stained with hematoxylin for the correlation of areas of histologically verified tumor areas with autoradiograms. The regional radioactivity was measured in the tumor, BST (areas within 2 mm distance from the border of the tumor), right cortex (ipsilateral cortex), left cortex (contralateral cortex), right white matter, left white matter, right basal ganglia, and left basal ganglia. Quantitative analysis of the regional radioactivity was performed using a computer (Power Macintosh 7100) and the software, Image 1.55 (NIH).
For quantitative autoradiographic examination, the regional permeability in the brain and tumor tissues were expressed by the unidirectional transfer constant, Ki value (μl/g/minute) which was determined as described in References 21, 22, 23 and 24). […]

C6 gliomas = assay: Regional permeability (Ki) by quantitative autoradiography in rats with implanted C6 gliomas; assay type: in vivo, rat
Description: as §1, §2
The tumor-implanted rats were grouped by tracers and by tumor types. Bradykinin (Sigma Chemical Co., St. Louis, Mo.) or PBS (control) was infused into the right carotid artery at a rate of 53.3 μl/minute (10 μg/kg/minute) for 15 minutes. […] A peristaltic withdrawal pump was used to withdraw femoral arterial blood at a constant rate of […] immediately after the injection of the tracer for the determination of serum radioactivity. […]
The frozen brains were mounted onto pedestals with M-1 embedding matrix (Lipshaw, Pittsburgh, Pa.) and 20 μm coronal sections were cut with a cryotome. […] The regional radioactivity was measured in the tumor, BST (areas within 2 mm distance from the border of the tumor), right cortex (ipsilateral cortex), left cortex (contralateral cortex), right white matter, left white matter, right basal ganglia, and left basal ganglia. Quantitative analysis of the regional radioactivity was performed using a computer (Power Macintosh 7100) and the software, Image 1.55 (NIH).
For quantitative autoradiographic examination, the regional permeability in the brain and tumor tissues were expressed by the unidirectional transfer constant, Ki value (μl/g/minute) which was determined as described in References 21, 22, 23 and 24).
For all tracers, statistical comparison of regional Ki values or blood volume between same regions with/without bradykinin or zaprinast were determined using analysis of variance (ANOVA) followed by non-parametric analysis of Mann-Whitney's U test. […]

[1] = Solubility of zaprinast in saline; assay type: physicochemical
Description: The bradykinin/bradykinin analog and zaprinast are preferably infused in the form of a pharmaceutical solution having a […] phosphate buffered saline solution as the carrier. The concentration of bradykinin in the solution is 10-40 μg/ml with the preferred concentration of zaprinast being on the order of 1 to 10 mg/ml for carotid artery administration. For intravenous administration, the concentration of bradykinin/bradykinin analog is preferably between about 15 μg/ml to 50 mg/ml with the preferred concentration of zaprinast being on the order of 2 mg/ml to 15 mg/ml. Zaprinast is not soluble directly in saline. Accordingly, it is preferred that the pharmaceutical solution be prepared by dissolving zaprinast in 1 M sodium hydroxide to form a concentrated solution of approximately 100 to 500 mg/ml zaprinast. This concentrated solution is then dissolved into phosphate buffered saline (PBS) to the final desired concentration. Bradykinin or the bradykinin analog is then added to the solution to form the final pharmaceutical preparation. The relative concentrations within the pharmaceutical preparation are adjusted as set forth above to provide a solution which is suitable for either carotid artery infusion or intravenous administration.

[2] = rat, in vivo
From the text: as §2

For CCCCC/C=C\C\C=C/C=C/C=C/[C@@H](SC[C@H](NC(=O)CC[C@H](N)C(=O)O)C(=O)NCC(=O)O)[C@@H](O)CCCC(=O)O [LTC4, leukotriene C4], the “permeability in brain tumor capillaries vs normal brain capillaries (in words)” value (brain tumor capillaries) is given as “selectively increases”.

In the case of NC(N)=NCCC[C@H](NC(=O)[C@H](Cc1ccccc1)NC(=O)[C@@H]1CCCN1C(=O)[C@H](CO)NC(=O)[C@H](Cc1ccccc1)NC(=O)CNC(=O)[C@@H]1CCCN1C(=O)[C@@H]1CCCN1C(=O)[C@@H](N)CCCN=C(N)N)C(=O)O [bradykinin] (H-RPPGFSPFR-OH), the “transport (Ki) of either tracer in other normal brain / non-tumor regions (in words)” value (RG2 gliomas; RG2-bearing rats, [14C]-dextran and [14C]-AIB) is reported as “did not increase”, the “Ki for AIB in BST (brain within 2 mm of the tumor)” value (RG2 gliomas; RG2, brain surrounding tumor, intracarotid infusion 15 minutes) is reported as 5.31 ± 1.50 µL/g/min and the “Ki for dextran in BST (in words)” value (RG2 gliomas; RG2, brain surrounding tumor, vs control) is reported as “not significantly increased”. For the same compound, the “effect on tumor permeability 20 minutes after stopping the intracarotid infusion (in words)” value (RG2 gliomas; RG2 tumor, time course study) was “diminished”, the “Ki in tumors for [14C]-dextran, fold higher than in controls” value (RG2 gliomas; RG2 tumor, bradykinin 10 μg/kg/minute intracarotid vs PBS control) was 8.4 fold and the “Ki in tumors for [14C]-AIB (MW 103)” value (RG2 gliomas; RG2 tumor, intracarotid infusion 15 minutes (bradykinin 10 μg/kg/minute, zaprinast 1.67 mg/kg/minute), mean±SD) was 26.46 ± 2.64 µL/g/min. The “transfer constant, Ki, in tumors for [14C]-dextran (MW 70,000)” value (RG2 gliomas; RG2 tumor, intracarotid infusion 15 minutes (bradykinin 10 μg/kg/minute, zaprinast 1.67 mg/kg/minute), tracer i.v. 5 minutes after start, mean±SD) was 14.33 ± 2.96 µL/g/min, the “[14C]-dextran uptake into the tumor (Ki) 10 minutes after stopping the intracarotid infusion” value (RG2 gliomas; RG2 tumor, time course study) was 3.89 ± 0.74 µL/g/min and the “transport (Ki) for either tracer in non-tumor regions (in words)” value (C6 gliomas; C6-bearing rats, [14C]-dextran and [14C]-AIB) was “did not increase”. The “Ki in tumors for [14C]-dextran, fold higher than in controls” value (C6 gliomas; C6 tumor, bradykinin intracarotid vs PBS control) was 3.1 fold.

With CCCOc1ccccc1-c1nc2nn[nH]c2c(=O)[nH]1 [zaprinast, 2-(2-propyloxyphenyl)-8-azapurin-6-one] the “solubility in saline (in words)” value [1] was “not soluble”, the “bradykinin effect on tumor permeability (Ki) at 10 minutes after infusion (in words)” value (RG2 gliomas; RG2 tumor, FIG. 5 time course) was “significantly prolonged” and the “effect on tumor permeability 20 minutes after stopping the intracarotid infusion (in words)” value (RG2 gliomas; RG2 tumor, time course study) was “negligible”. For the same compound, the “Ki values in RG2 tumors for both tracers (in words)” value (RG2 gliomas; zaprinast alone, intracarotid, [14C]-dextran and [14C]-AIB) was “did not increase”, the “blood gas parameters or hemoglobin concentration (in words)” value [2] was “did not change” and the Ki in tumors for [14C]-AIB (C6 gliomas; C6 tumor, intracarotid infusion 15 minutes (bradykinin 10 μg/kg/minute, zaprinast 1.67 mg/kg/minute)) was 31.4 µL/g/min. For the same compound, the “Ki values in C6 tumors for [14C]-dextran, increase with zaprinast alone (in words)” value (C6 gliomas; C6 tumor, zaprinast alone, intracarotid) was “not”.
